Measured values from PubChem BioAssay (NCI).
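Compound exposure: 48 hours, 5 concentrations, 96-well plates. GI50 = concentration required for 50% inhibition of growth. At the TGI there is no net growth.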

How the values were obtained:
Assay in all cases: inhibition of tumour cell growth, NCI panel, 48 h
ACHN renal = test system: ACHN renal
SF-268 CNS = test system: SF-268 CNS
MCF7 breast = test system: MCF7 breast
OVCAR-4 ovarian = test system: OVCAR-4 ovarian
HT29 colon = test system: HT29 colon
SF-539 CNS = test system: SF-539 CNS
CAKI-1 renal = test system: CAKI-1 renal
SR leukemia = test system: SR leukemia

| SMILES | GI50 (ACHN renal) [µM] | TGI (ACHN renal) [µM] | GI50 (SF-268 CNS) [µM] | TGI (SF-268 CNS) [µM] | GI50 (MCF7 breast) [µM] | TGI (MCF7 breast) [µM] | GI50 (OVCAR-4 ovarian) [µM] | TGI (OVCAR-4 ovarian) [µM] | GI50 (HT29 colon) [µM] | TGI (HT29 colon) [µM] | GI50 (SF-539 CNS) [µM] | TGI (SF-539 CNS) [µM] | GI50 (CAKI-1 renal) [µM] | TGI (CAKI-1 renal) [µM] | GI50 (SR leukemia) [µM] | TGI (SR leukemia) [µM] |
| --- | --- | --- | --- | --- | --- | --- | --- | --- | --- | --- | --- | --- | --- | --- | --- | --- |
| COc1cc(-n2ccnc2)cc(OC)c1OC | 34.6 | > 100 | 37.9 | > 100 | 41.7 | > 100 | > 100 | > 100 | > 100 | > 100 | > 100 | > 100 | 26.7 | 55.8 | – | – |
| COc1cccc(/C(C)=N/NC(=O)CSc2nc3ccccc3c(=O)n2CCc2ccc(S(N)(=O)=O)cc2)c1 | 3.19 | 15.9 | 2.68 | 7.32 | 3.14 | 15.4 | 1.85 | 4.28 | 2.36 | 5.31 | 1.88 | 3.98 | 3.7 | 15.4 | 0.481 | > 100 |
| CCN1C[C@]2(COC)[C@H](O)C[C@H](OC)[C@]34C1[C@H]([C@H](OC)[C@H]23)[C@]1(OC(C)=O)[C@H]2[C@@H](OC(=O)c3ccccc3)[C@](O)(C[C@H]24)[C@@H](OC)[C@@H]1O | – | > 100 | – | > 100 | – | > 100 | – | > 100 | – | > 100 | – | > 100 | – | > 100 | – | > 100 |
| NC(=Nc1ccc(N)cc1)C(N)=Nc1ccc(N)cc1 | 37.5 | > 100 | > 100 | > 100 | 82.8 | > 100 | > 100 | > 100 | 63.4 | > 100 | 73.7 | > 100 | 52.6 | > 100 | – | – |
| CCCCCCCC(=O)OCC(=O)[C@]1(O)Cc2c(O)c3c(c(O)c2[C@@H](OC2CC(N)C(O)C(C)O2)C1)C(=O)c1c(OC)cccc1C3=O (stereo partly specified) | – | – | – | – | – | 0.417 | – | – | – | – | 0.166 | 1 | 0.558 | 2.43 | – | – |
| CC(=O)c1cc(C(=O)c2ccc3c(c2)Sc2ccccc2N3)c2c(C)cccn12 | 1.42 | > 100 | 0.915 | > 100 | 0.117 | > 100 | 2.13 | > 100 | 0.272 | 1.8 | 0.234 | 1.13 | – | – | – | – |
| Nc1ccccc1C#C/C=C\C#Cc1c(F)c(F)c(F)c(F)c1F | 14.5 | 30.7 | 14.1 | 50.9 | 24.6 | > 100 | 20.2 | 96 | 19.7 | 50.7 | 20.9 | 47.1 | 10.9 | 29.1 | – | – |
| O=C1c2ccccc2C(=O)c2c(NCC3CO3)ccc(NCC3CO3)c21 (stereo unspecified) | – | 2.62 | – | – | – | 1.25 | – | 34 | – | 12.8 | – | 6.82 | – | 7.79 | – | > 27.2 |
| Cc1c(C(N)=O)sc2c1c(=O)n(Cc1ccccc1)c1nnc(-c3ccc(Br)cc3)n21 | 1.46 | 12.3 | 1.4 | 13.4 | 3.4 | 14.6 | 2.51 | 15.8 | 2.32 | 13.4 | 2.87 | 12.5 | 0.431 | 6.96 | – | – |
| Cc1cc(O)c(/C=N/C(=S)Nc2ccccc2)c(=O)o1 | – | > 100 | – | > 100 | – | > 100 | – | > 100 | – | > 100 | – | > 100 | – | > 100 | – | – |
| COc1ccc(C(CC(=O)c2ccccc2)C(C(=O)c2ccccc2)C(c2ccc(OC)cc2)C2C(=O)NC(=S)NC2=O)cc1 (stereo unspecified) | 12.3 | 50.9 | 9.99 | 55.5 | 16.1 | > 100 | 30.3 | > 100 | 21.3 | > 100 | 10.1 | 36.1 | 2.53 | 11.8 | – | – |
| CC1=C(C)C2(O)C(=C(C)C1=O)/C(=C(/O)c1ccccc1)c1nc3ccccc3n12 (stereo unspecified) | 16.4 | 34.4 | 35.7 | > 100 | – | – | 13.5 | 27.1 | 32.5 | > 100 | 21.7 | 44.5 | 17.3 | 55.9 | 10.9 | 37.6 |
| C#COc1cccc(Nc2ncnc3cc(NC(=O)[C@H](C)Cl)ccc23)c1 | 3.05 | > 62.5 | 4.3 | > 62.5 | 6.08 | > 62.5 | – | – | 2.21 | > 62.5 | 2.85 | > 62.5 | 2.95 | > 62.5 | 2.87 | > 62.5 |
| Cc1cn(-c2ccc(S(C)(=O)=O)cc2)c(-c2ccc(Cl)cc2)n1 | > 100 | > 100 | > 100 | > 100 | > 100 | > 100 | > 100 | > 100 | > 100 | > 100 | > 100 | > 100 | > 100 | > 100 | – | – |
| CC12CCC3c4cc(Br)c(O)c(Br)c4CCC3C1CCC2O (stereo unspecified) | – | 73.7 | – | 49.6 | – | 74.6 | – | – | – | 29.1 | – | 36.3 | – | 31.5 | – | – |
| C=C(C)C(=O)O[C@@H]1C/C(C)=C\[C@H](OC(C)=O)C[C@](C)(O)/C=C2/OC(=O)C(COC(C)=O)=C21 | – | 1.87 | – | – | – | > 36.5 | – | – | – | 0.687 | – | > 28.5 | – | 0.99 | – | – |
| COc1ccc(N(/C=C/C(=O)C(F)(F)F)CC(=O)c2ccc(Cl)cc2)cc1 | 14.5 | 27.6 | 16.3 | 34.9 | 18.4 | > 100 | 18 | 49.1 | 25 | 95.6 | 18.2 | 37 | 9.88 | 29.6 | – | – |
| O=C(CC(=O)c1cccc(Cl)c1)c1cccc(Cl)c1 | 2.71 | > 100 | 2.76 | > 100 | 1.72 | > 100 | 1.9 | > 100 | – | – | 2.91 | > 100 | 1.61 | 6.65 | – | – |
| Cc1ccc(NC(=O)/C(=N/N(C)C)C(C2OC(=O)c3ccccc32)[N+](=O)[O-])cc1 (stereo unspecified) | – | > 100 | – | > 100 | – | > 100 | – | > 100 | – | > 100 | – | > 100 | – | > 100 | – | – |
